# Assay results as given in US10752640B2, “Compounds active towards bromodomains” (NUEVOLUTION A/S, priority 2014, dated 2020).
# Molecular target: BRD4 protein (Homo sapiens, UniProt O60885)
# Experiment: FRET assay, half maximal inhibitory concentration (IC50)
# Type: binding
# Settings: BRD4 protein 50 nM, Biotin-H4KAc4 peptide 12.5 nM; List of Classification
# Procedure: The compounds were biologically evaluated by determining the half maximal inhibitory concentration (IC50) by FRET assay. The IC50 is a measure of the effectiveness of a substance in inhibiting a specific biological or biochemical function.
# For IC50 determinations, dose-response curves were generated, using a top concentration of 50 μM compound in 12.5% DMSO, followed by 10-fold dilutions in 12.5% DMSO. The composition of the reaction buffer was 50 mM HEPES, pH 7.5; 100 mM NaCl, 0.05% CHAPS.
# The reaction was run in a final volume of 25 μl. The BRD4 protein (16.5 μl) was added to wells of 384w white Optiplates (Perkin Elmer) (50 nM final concentration) and 1 μl of compound dilution of DMSO control. Incubation time was 30 minutes at room temperature. In the next step, 2.5 μl Biotin-H4KAc4 peptide (Millipore 13-379) was added to the wells (final concentration was 12.5 nM), and the plates were incubated for 30 minutes at room temperature. Detection was performed by addition of 5 μl of a mix of mAb GST-XL665 (Cisbio 61GSTXLB) (10 nM final concentration) and Streptavidin Cryptate (Cisbio 610SAKLB) (2.4 nM final conc.) in reaction buffer with 0.4M KF and 0.05% BSA). The plates were incubated for one hour prior to reading on an Envision reader (Perkin Elmer)
# Data was analyzed using GraphPad Prism, and IC50 data was obtained using non-linear regression curve fit using log(inhibitor) vs response (variable slope). All compounds were considered active although classified (according to the half maximal inhibitory concentration (IC50) by FRET assay) as follows: […]
row,IC50 [nM],SMILES
1,< 200,"Cc1cc(O)nc2ccc(NC(=O)c3cc(S(=O)(=O)N4CCN(C)CC4)ccc3N3CCOCC3)cc12 [Compound-5, N-(2-hydroxy-4-methylquinolin-6-yl)-5-(4-methylpiperazin-1-ylsulfonyl)-2-morpholino benzamide]"
2,< 200,"Cc1cc(O)nc2ccc(NC(=O)c3cc(C(=O)N(C)C)ccc3N3CCOCC3)cc12 [Compound-9, N3-(2-hydroxy-4-methyl-6-quinolyl)-N1,N1-dimethyl-4-morpholino-benzene-1,3-dicarboxamide]"
3,< 200,"Cc1cc(O)nc2ccc(NC(=O)c3cc(C(=O)N4CCN(C)CC4)ccc3N3CCOCC3)cc12 [Compound-10, N-(2-hydroxy-4-methyl-6-quinolyl)-5-(4-methylpiperazine-1-carbonyl)-2-morpholino-benzamide]"
4,200 to 500,"Cc1cc(O)nc2ccc(NC(=O)c3cc(CO)ccc3N3CCCC3)cc12 [Compound-14, N-(2-hydroxy-4-methylquinlin-6-yl)-5-(hydroxymethyl)-2-(pyrrolidin-1-yl) benzamide]"
5,< 200,"Cc1cc(O)nc2ccc(NC(=O)c3cc(S(=O)(=O)N(C)C)ccc3N3CCC(O)C3)cc12 (stereo not drawn) [Compound-17, 5-(dimethylsulfamoyl)-N-(2-hydroxy-4-methyl-6-quinolyl)-2-(3-hydroxypyrrolidin-1-yl)benzamide]"
6,> 10000,"Cc1cc(O)nc2ccc(NC(=O)c3cc(S(=O)(=O)N(C)C)ccc3NCCO)cc12 [Compound-19, 5-(dimethylsulfamoyl)-2-(2-hydroxyethylamino)-N-(2-hydroxy-4-methyl-6-quinolyl)benzamide]"
7,1000 to 10000,"Cc1cc(O)nc2ccc(NC(=O)c3cc([N+](=O)[O-])cnc3N3CCCC3)cc12 [Compound-23, N-(2-hydroxy-4-methyl-6-quinolyl)-5-nitro-2-pyrrolidin-1-yl-pyridine-3-carboxamide]"
8,< 200,"Cc1cc(O)nc2ccc(NC(=O)c3cc(N)cnc3N3CCCC3)cc12 [Compound-24, 5-amino-N-(2-hydroxy-4-methyl-6-quinolyl)-2-pyrrolidin-1-yl-pyridine-3-carboxamide]"
9,500 to 1000,"O=C(Nc1ccc2nc(O)cc(C(F)(F)F)c2c1)c1cc(CN2CCOCC2)ccc1N1CCCC1 [Compound-28, N-(2-hydroxy-4-(trifluoromethyl)quinolin-6-yl)-5-(morpholinomethyl)-2-(pyrrolidin-1-yl) benzamide]"
10,< 200,"Cc1cc2nc(O)cc(C)c2cc1NC(=O)c1cc(CN2CCOCC2)ccc1N1CCCC1 [Compound-29, N-(2-hydroxy-4,7-dimethylquinolin-6-yl)-5-(morpholinomethyl)-2-(pyrrolidin-1-yl)benzamide]"
11,< 200,"Cc1cc(O)nc2ccc(NC(=O)c3cc(CN4CCOCC4)ccc3N3CCC(O)C3)cc12 (stereo not drawn) [Compound-31, N-(2-hydroxy-4-methyl-6-quinolyl)-2-(3-hydroxypyrrolidin-1-yl)-5-(morpholinomethyl)benzamide]"

# Second part, the compound before the results:
row,SMILES,IC50 [nM]
1,"Cc1cc(O)nc2ccc(NC(=O)c3cc(CN4CCNCC4)ccc3N3CCCC3)cc12 [Compound-2, N-(2-hydroxy-4-methylquinolin-6-yl)-5-(piperazin-1-ylmethyl)-2-(pyrrolidin-1-yl)benzamide]",< 200
2,"Cc1cc(O)nc2ccc(NC(=O)c3cc(CN4CCOCC4)ccc3N3CCCC3)cc12 [Compound-3, N-(2-hydroxy-4-methylquinolin-6-yl)-5-(morpholinomethyl)-2-(pyrrolidin-1-yl)benzamide]",< 200
3,"CC(=O)N1CCN(Cc2ccc(N3CCCC3)c(C(=O)Nc3ccc4nc(O)cc(C)c4c3)c2)CC1 [Compound-4, 5-[(4-acetylpiperazin-1-yl)methyl]-N-(2-hydroxy-4-methyl-6-quinolyl)-2-pyrrolidin-1-yl-benzamide]",< 200
4,"Cc1cc(O)nc2ccc(NC(=O)c3cc(S(=O)(=O)N4CCC(N(C)C)C4)ccc3N3CCOCC3)cc12 (stereo not drawn) [Compound-6, 5-[3-(dimethylamino)pyrrolidin-1-yl]sulfonyl-N-(2-hydroxy-4-methyl-6-quinolyl)-2-morpholino-benzamide]",< 200
5,"Cc1cc(O)nc2ccc(NC(=O)c3cc(S(=O)(=O)N4CC(N(C)C)C4)ccc3N3CCOCC3)cc12 [Compound-7, 5-[3-(dimethylamino)azetidin-1-yl]sulfonyl-N-(2-hydroxy-4-methyl-6-quinolyl)-2-morpholino-benzamide]",< 200
6,"Cc1cc(O)nc2ccc(NC(=O)c3cc(S(=O)(=O)N4CC(N)C4)ccc3N3CCOCC3)cc12 [Compound-8, 1-(3-(2-hydroxy-4-methylquinolin-6-ylcarbamoyl)-4-morpholinophenylsulfonyl) azetidin-3-aminium 2,2,2-trifluoroacetate]",< 200
7,"Cc1cc(O)nc2ccc(NC(=O)c3cc(C(=O)N4CCOCC4)ccc3N3CCOCC3)cc12 [Compound-11, N-(2-hydroxy-4-methylquinolin-6-yl)-5-(morpholine-4-carbonyl)-2-morpholinobenzamide]",200 to 500
8,"Cc1cc(O)nc2ccc(NC(=O)c3cc(C(N)=O)ccc3N3CCOCC3)cc12 [Compound-12, N3-(2-hydroxy-4-methyl-6-quinolyl)-4-morpholino-benzene-1,3-dicarboxamide]",200 to 500
9,"COCc1ccc(N2CCCC2)c(C(=O)Nc2ccc3nc(O)cc(C)c3c2)c1 [Compound-13, N-(2-hydroxy-4-methylquinlin-6-yl)-5-(methoxymethyl)-2-(pyrrolidin-1-yl) benzamide]",< 200
10,"Cc1cc(O)nc2ccc(NC(=O)c3cc(S(=O)(=O)N(C)C)ccc3N3CCN(C)CC3)cc12 [Compound-15, 5-(N, N-dimethylsulfamoyl)-N-(2-hydroxy-4-methylquinolin-6-yl)-2-(4-methylpiperazin-1-yl) benzamide]",< 200
11,"Cc1cc(O)nc2ccc(NC(=O)c3cc(S(=O)(=O)N(C)C)ccc3N3CCC(N(C)C)C3)cc12 (stereo not drawn) [Compound-16, 2-[3-(dimethylamino)pyrrolidin-1-yl]-5-(dimethylsulfamoyl)-N-(2-hydroxy-4-methyl-6-quinolyl)benzamide]",200 to 500
12,"Cc1cc(O)nc2ccc(NC(=O)c3cc(S(=O)(=O)N(C)C)ccc3NCCN(C)C)cc12 [Compound-18, 2-(2-dimethylaminoethylamino)-5-(dimethylsulfamoyl)-N-(2-hydroxy-4-methyl-6-quinolyl)benzamide]",> 10000
13,"Cc1cc(O)nc2ccc(NC(=O)c3cc(S(=O)(=O)N(C)C)ccc3N3CC(N(C)C)C3)cc12 [Compound-20, 2-[3-(dimethylamino)azetidin-1-yl]-5-(dimethylsulfamoyl)-N-(2-hydroxy-4-methyl-6-quinolyl)benzamide]",200 to 500
14,"Cc1cc(O)nc2ccc(N(C)C(=O)c3cc(S(=O)(=O)N(C)C)ccc3N3CCN(C)CC3)cc12 [Compound-21, 5-(N, N-dimethylsulfamoyl)-N-(2-hydroxy-4-methylquinolin-6-yl)-N-methyl-2-(4-methylpiperazin-1-yl) benzamide]",> 10000
15,"Cc1cc(O)nc2ccc(N(C)C(=O)c3cc(S(=O)(=O)N4CCOCC4)ccc3N3CCCC3)cc12 [Compound-22, N-(2-hydroxy-4-methylquinolin-6-yl)-N-methyl-5-(morpholinosulfonyl)-2-(pyrrolidin-1-yl) benzamide]",> 10000
16,"Cc1cc(O)nc2ccc(NC(=O)c3cc(NCC(N)=O)cnc3N3CCCC3)cc12 [Compound-25, 5-[(2-amino-2-oxo-ethyl)amino]-N-(2-hydroxy-4-methyl-6-quinolyl)-2-pyrrolidin-1-yl-pyridine-3-carboxamide]",200 to 500
17,"COCC1CCCN1c1ccc(CN2CCOCC2)cc1C(=O)Nc1ccc2nc(O)cc(C)c2c1 (stereo not drawn) [Compound-26, N-(2-hydroxy-4-methylquinolin-6-yl)-2-(2-(methoxymethyl)pyrrolidin-1-yl)-5-(morpholinomethyl) benzamide]",< 200
18,"Cc1cc(O)nc2ccc(NC(=O)c3cc(CN4CCOCC4)ccc3N3CCCC3c3cc[nH]n3)cc12 (stereo not drawn) [Compound-27, 2-(2-(1H-pyrazol-3-yl)pyrrolidin-1-yl)-N-(2-hydroxy-4-methylquinolin-6-yl)-5-(morpholinomethyl) benzamide]",1000 to 10000
19,"Cc1cc(O)nc2ccc(NC(=O)c3cc(CN4CCOCC4)ccc3N3CCCC3CO)cc12 (stereo not drawn) [Compound-30, N-(2-hydroxy-4-methylquinolin-6-yl)-2-(2-(hydroxymethyl)pyrrolidin-1-yl)-5-(morpholinomethyl) benzamide]",< 200
20,"Cc1cc(O)nc2ccc(NC(=O)c3cc(CN4CCOCC4)ccc3N3CCCC3CN(C)C)cc12 (stereo not drawn) [Compound-32, 2-(2-((dimethylamino)methyl)pyrrolidin-1-yl)-N-(2-hydroxy-4-methylquinolin-6-yl)-5-(morpholinomethyl) benzamide]",< 200
21,"Cc1cc(O)nc2ccc(NC(=O)c3nc(-c4nnn[nH]4)ccc3N3CCCC3)cc12 [Compound-33, N-(2-hydroxy-4-methylquinolin-6-yl)-3-(pyrrolidin-1-yl)-6-(1H-tetrazol-5-yl) picolinamide]",1000 to 10000
22,"Cc1cc(O)nc2ccc(NC(=O)c3cc(CN4CCOCC4)ccc3N3CCCC3=O)cc12 [Compound-34, N-(2-hydroxy-4-methylquinolin-6-yl)-5-(morpholinomethyl)-2-(2-oxopyrrolidin-1-yl) benzamide]",500 to 1000
